From patent US20260285850A1, “SUBSTITUTED OXAZOLIDINONES AND IMIDAZOLINONES AS HERBICIDES” (FMC CORPORATION, priority 2023, published 2026)

Tests used:
Type in all cases: in vivo
[1] = system: barnyardgrass (Echinochloa crus-galli); assay: Test A preemergence soil spray, visual injury rating 0-100; details: 10 days, 0 = no effect, 100 = complete control
How it was run: (§1)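 Seeds sown in loam-sand blend got a preemergence directed soil spray, or emerged plants (2-10 cm, one- to two-leaf) got a postemergence spray, of compound in non-phytotoxic solvent with surfactant. After 10 days in greenhouse, injury rated visually versus untreated controls on a 0 (no effect) to 100 (complete control) scale.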

[2] = system: blackgrass (Alopecurus myosuroides); assay: as above; details: 10 days, 0 = no effect, 100 = complete control
How it was run: as §1

corn (Zea mays) [3] = assay: as above; details: 10 days, 0 = no effect, 100 = complete control
How it was run: as §1

[4] = system: green foxtail (Setaria viridis); assay: as above; details: 10 days, 0 = no effect, 100 = complete control
How it was run: as §1

kochia (Bassia scoparia) [5] = assay: as above; details: 10 days, 0 = no effect, 100 = complete control
How it was run: as §1

[6] = system: oat, wild (wild oat, Avena fatua); assay: as above; details: 10 days, 0 = no effect, 100 = complete control
How it was run: as §1

[7] = system: palmer (palmer amaranth, palmer pigweed, Amaranthus palmeri); assay: as above; details: 10 days, 0 = no effect, 100 = complete control
How it was run: as §1

[8] = system: ragweed (common ragweed, Ambrosia artemisiifolia); assay: as above; details: 10 days, 0 = no effect, 100 = complete control
How it was run: as §1

[9] = system: ryegrass, Italian (italian ryegrass, Lolium multiflorum); assay: as above; details: 10 days, 0 = no effect, 100 = complete control
How it was run: as §1

soybean (Glycine max) [10] = assay: as above; details: 10 days, 0 = no effect, 100 = complete control
How it was run: as §1

[11] = system: wheat (Triticum aestivum); assay: as above; details: 10 days, 0 = no effect, 100 = complete control
How it was run: as §1

[12] = system: barnyardgrass (Echinochloa crus-galli); assay: Test A postemergence application, visual injury rating 0-100; details: 10 days
How it was run: as §1

[13] = system: blackgrass (Alopecurus myosuroides); assay: as above; details: 10 days
How it was run: as §1

corn (Zea mays) [14] = assay: as above; details: 10 days
How it was run: as §1

[15] = system: galium (catchweed bedstraw, Galium aparine); assay: as above; details: 10 days
How it was run: as §1

[16] = system: green foxtail (Setaria viridis); assay: as above; details: 10 days
How it was run: as §1

[17] = system: horseweed (Erigeron canadensis); assay: as above; details: 10 days
How it was run: as §1

kochia (Bassia scoparia) [18] = assay: as above; details: 10 days
How it was run: as §1

[19] = system: oat, wild (wild oat, Avena fatua); assay: as above; details: 10 days
How it was run: as §1

[20] = system: palmer (palmer amaranth, palmer pigweed, Amaranthus palmeri); assay: as above; details: 10 days
How it was run: as §1

[21] = system: ragweed (common ragweed, Ambrosia artemisiifolia); assay: as above; details: 10 days
How it was run: as §1

[22] = system: ryegrass, Italian (italian ryegrass, Lolium multiflorum); assay: as above; details: 10 days
How it was run: as §1

soybean (Glycine max) [23] = assay: as above; details: 10 days
How it was run: as §1

[24] = system: wheat (Triticum aestivum); assay: as above; details: 10 days
How it was run: as §1

[25] = system: barnyardgrass (Echinochloa crusgalli); assay: Test B flooded paddy test, visual plant response rating 0-100; details: 250 g ai/ha, Flood, applied to paddy water, evaluated after 13 days
How it was run: (§2)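 Paddy-water application: test compounds went directly into water flooded 3 cm above the soil surface, with plants at 2 leaves. After a 13-day greenhouse period, responses were judged by eye relative to controls; a dash marks an untested entry.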

[26] = system: ducksalad (Heteranthera limosa); assay: as above; details: 250 g ai/ha, Flood, applied to paddy water, evaluated after 13 days
How it was run: as §2

rice (Oryza sativa) = assay: as above; details: 250 g ai/ha, Flood, applied to paddy water, evaluated after 13 days
How it was run: as §2

[27] = system: sedge, umbrella (small-flower umbrella sedge, Cyperus difformis); assay: as above; details: 250 g ai/ha, Flood, applied to paddy water, evaluated after 13 days
How it was run: as §2

[28] = 31 g ai/ha, postemergence, 0 = no effect, 100 = complete control
[29] = Postemergence, 125 g ai/ha, 0 is no effect, 100 is complete control

CSCCOC(=O)C1=CCC(NC(=O)C2(C)CN(c3cc(F)cc(F)c3)C(=O)O2)C1 (stereo not shown) [Compound 22]
20: Blackgrass plant response rating (0 to 100 scale) ([2]; 125 g ai/ha) | Corn plant response rating (0-100) (corn (Zea mays) [3]; 31 g ai/ha) | Corn plant response rating (0 to 100 scale) (corn (Zea mays) [3]; 125 g ai/ha) | Oat, Wild plant response rating (0 to 100 scale) ([6]; 125 g ai/ha) | Wheat plant response rating (0-100) ([11]; 31 g ai/ha) | Foxtail, Green plant response rating (0-100) [16, 28] | Amaranth, Palmer plant response rating (0-100) [20, 28]
50: Ryegrass, Italian plant response rating (0 to 100 scale) ([9]; 125 g ai/ha) | Corn plant response rating (0-100) (corn (Zea mays) [14]; [28]) | Ragweed plant response rating (0 to 100 scale) [21, 29]
40: Oat, Wild plant response rating (0-100) [19, 28]
0: Barnyardgrass plant response rating (0-100) ([1]; 31 g ai/ha) | Barnyardgrass plant response rating (0 to 100 scale) ([1]; 125 g ai/ha) | Blackgrass plant response rating (0-100) ([2]; 31 g ai/ha) | Foxtail, Green plant response rating (0-100) ([4]; 31 g ai/ha) | Kochia plant response rating (0-100) (kochia (Bassia scoparia) [5]; 31 g ai/ha) | Kochia plant response rating (0 to 100 scale) (kochia (Bassia scoparia) [5]; 125 g ai/ha) | Oat, Wild plant response rating (0-100) ([6]; 31 g ai/ha) | Amaranth, Palmer plant response rating (0-100) ([7]; 31 g ai/ha) | Ragweed plant response rating (0-100) ([8]; 31 g ai/ha) | Ragweed plant response rating (0 to 100 scale) ([8]; 125 g ai/ha) | Ryegrass, Italian plant response rating (0-100) ([9]; 31 g ai/ha) | Soybean plant response rating (0-100) (soybean (Glycine max) [10]; 31 g ai/ha) | Horseweed plant response rating (0-100) [17, 28] | Ragweed plant response rating (0-100) [21, 28] | Plant response rating, Barnyardgrass (0 to 100 scale, 0 is no effect and 100 is complete control) [25] | Plant response rating, Ducksalad (0 to 100 scale, 0 is no effect and 100 is complete control) [26] | Plant response rating, Rice (0 to 100 scale, 0 is no effect and 100 is complete control) (rice (Oryza sativa)) | Plant response rating, Sedge, Umbrella (0 to 100 scale, 0 is no effect and 100 is complete control) [27]
80: Amaranth, Palmer plant response rating (0 to 100 scale) ([7]; 125 g ai/ha) | Blackgrass plant response rating (0 to 100 scale) [13, 29] | Galium plant response rating (0 to 100 scale) [15, 29] | Foxtail, Green plant response rating (0 to 100 scale) [16, 29] | Amaranth, Palmer / Pigweed, Palmer plant response rating (0 to 100 scale) [20, 29]
30: Foxtail, Green plant response rating (0 to 100 scale) ([4]; 125 g ai/ha) | Horseweed plant response rating (0 to 100 scale) [17, 29]
70: Barnyardgrass plant response rating (0-100) [12, 28] | Oat, Wild plant response rating (0 to 100 scale) [19, 29] | Ryegrass, Italian plant response rating (0 to 100 scale) [22, 29] | Soybean plant response rating (0-100) (soybean (Glycine max) [23]; [28])
90: Barnyardgrass plant response rating (0 to 100 scale) [12, 29] | Kochia plant response rating (0 to 100 scale) (kochia (Bassia scoparia) [18]; [29]) | Soybean plant response rating (0 to 100 scale) (soybean (Glycine max) [23]; [29]) | Wheat plant response rating (0-100) [24, 28] | Wheat plant response rating (0 to 100 scale) [24, 29]
100: Corn plant response rating (0 to 100 scale) (corn (Zea mays) [14]; [29])
10: Soybean plant response rating (0 to 100 scale) (soybean (Glycine max) [10]; 125 g ai/ha)
60: Wheat plant response rating (0 to 100 scale) ([11]; 125 g ai/ha) | Blackgrass plant response rating (0-100) [13, 28] | Galium plant response rating (0-100) [15, 28] | Kochia plant response rating (0-100) (kochia (Bassia scoparia) [18]; [28]) | Ryegrass, Italian plant response rating (0-100) [22, 28]
